Measured values taken from US20040234501A1, “Hepatitis b virus proliferation inhibitor” (priority 2001, published 2004).

Tests used:
[1] = Liver function (GPT) in a patient with chronic hepatitis B; type: in vivo, human
Description: (§1) Confirmation of the effect of IFN administration to a patient with chronic hepatitis B:
(§2) Therefore, 3,000,000 units of IFN-α were administered for a total of 28 days.

hepatitis B virus = assay: Amount of hepatitis B virus in the blood (HBV-DNA) and emergence of resistant virus in a patient with chronic hepatitis B; type: in vivo, human; conditions: after termination of IFN-α; 3,000,000 units for a total of 28 days
Description: as §1, §2

With `Nc1ccn([C@@H]2CS[C@H](CO)O2)c(=O)n1` [lamivudine, reference compound] the “GPT (liver function acutely worsened)” value ([1]; about 3 months after discontinuation of second lamivudine administration) was 567.
With interferon-α [IFN-α] the “amount of hepatitis B virus in the blood” value (hepatitis B virus) was “again increased”, the liver function ([1]; 3,000,000 units of IFN-α in combination with lamivudine, resistant virus present) was “further worsened” and the liver function ([1]; after termination of IFN-α, 3,000,000 units for a total of 28 days) was “worsened”.
